Legend:
[1] = Static CytoSorb adsorption setup (spiked plasma with CytoSorb resin); type: in vitro ADME, human; conditions: plasma:resin 1:10 v/v, 60 min, 37 °C, n = 3
Description: (§1) Plasma was obtained by centrifugation (3500× g, 10 min) from citrate-anticoagulated human whole blood and spiked with immunosuppressants to defined target concentrations (Table 1). To evaluate adsorption, plasma was incubated with the CytoSorb resin at 1:10 (v/v) for 60 min at 37 °C on a roller mixer. In parallel, a separate aliquot of spiked plasma was incubated with autologous blood cells (1:1, v/v) to assess cellular uptake of immunosuppressants. Untreated spiked plasma served as control (Figure 1a). Samples were collected before and after incubation for subsequent analysis.
(§2) MPA was determined using a validated test for the Cobas c311 autoanalyzer from Roche (Basel, Switzerland). 6-MP was quantified by reversed-phase HPLC [17, 18]. After precipitation of the plasma sample with ice cold methanol in ratio 1:5, 30 µL of the supernatant was injected into a Nukleosil 100-5C18, 4.6 × 150 mm C18 column (Macherey-Nagel, Düren, Germany), combined with an Onyx Monolithic C18, 4.6 × 5 mm guard column (Phenomenex, Torrance, CA, USA). The mobile phase consisted of methanol and deionised water (50:50) which was continuously pumped with a flow rate of 0.8 mL/min for five minutes. 6-MP was quantified with a retention time of 2.3 min using an UV detector (325 nm). The quantification of cytokines was determined by Magnetic Luminex Assay with a human premixed Multi Analyte Kit (R&D Systems, Minneapolis, MN, USA). The urea, albumin and total protein levels were measured with the cobas c311 automated analyzer with corresponding test kits from Roche (Penzberg, Germany).

[2] = tested on: autologous blood cells; experiment: Cellular uptake of immunosuppressants by autologous blood cells (static setup); type: in vitro ADME, human; conditions: spiked plasma with autologous blood cells 1:1 v/v, n = 3
Description: as §1
MPA was determined using a validated test for the Cobas c311 autoanalyzer from Roche (Basel, Switzerland). 6-MP was quantified by reversed-phase HPLC [17, 18]. […] 6-MP was quantified with a retention time of 2.3 min using an UV detector (325 nm). The quantification of cytokines was determined by Magnetic Luminex Assay with a human premixed Multi Analyte Kit (R&D Systems, Minneapolis, MN, USA). The urea, albumin and total protein levels were measured with the cobas c311 automated analyzer with corresponding test kits from Roche (Penzberg, Germany).

[3] = Determination of protein binding by ultrafiltration; type: in vitro ADME; conditions: human plasma, ultrafiltration 30 kDa cutoff; read-out: Protein Binding in Plasma, Current Study (converted)
Description: To assess protein binding of the tested immunosuppressants, human plasma was spiked with the respective drugs and urea as a freely diffusible control. Samples were then subjected to ultrafiltration (30 kDa cutoff, 15,000× g, 20 min). The protein-bound fraction was calculated using the following formula:(1) protein binding %= 1−Cfiltrate/Cplasma where cplasma is the concentration of each compound in plasma and cfiltrate is its concentration in the ultrafiltrate.

[4] = Dynamic CytoSorb adsorption setup (scaled-down circuit, whole blood); type: in vitro ADME, human
Description: To quantify the depletion of selected immunosuppressants during CytoSorb treatment under dynamic conditions, a scaled-down extracorporeal circulation system was established, consisting of a 30 mL CytoSorb adsorption cartridge and a pediatric tubing set filled with 400 mL of freshly drawn human whole blood (Figure 1b). To distinguish between drug removal by adsorption versus uptake by blood components, a control circuit with an identical setup but an empty cartridge was run in parallel for each experiment. Whole blood from two healthy donors of the same blood group was pooled, anticoagulated with citrate (final concentration: 7 mM), spiked with the immunosuppressants, and divided into two 400 mL blood bags.
Prior to circulation, the entire system was flushed with isotonic saline. Then, one of the prepared blood bags (Group 1 or Group 2) was connected to the circuit and circulated for 30 min at 37 °C without the adsorber cartridge to allow for equilibration. Following this equilibration, a baseline sample (0 min) was collected, and the adsorption column was introduced into the circuit. In the adsorption circuit, samples were collected at 15, 30, 60, 120, 180 and 240 min. In the control circuit, samples were taken at baseline and after 240 min. All blood samples were centrifuged (3500× g, 10 min) to separate plasma, which was stored at −80 °C until further analysis.
(§3) The clearance (C) of each compound during both the dialysis and the dynamic CytoSorb experiments was calculated using the first-order exponential decay formula:(2) C = V/t ×lnCo/Ct where V = plasma volume, t = treatment time [min], C0 = concentration before starting treatment, Ct = concentration at time t.
as §2

[5] = Removal of immunosuppressants by chronic dialysis (ex vivo, plasma); type: in vitro ADME, human
Description: (§4) To evaluate the effect of dialysis under clinically relevant conditions, both chronic and acute dialysis settings were simulated using standard Fresenius systems. In all experiments, 1.5 L of citrated human plasma was dialyzed against calcium-free dialysate at 37 °C.
(§5) Prior to circulation, the systems were flushed with 2 L of isotonic saline. Plasma samples were collected at defined time points (15–480 min) and analyzed for immunosuppressants, urea, and albumin. Chronic dialysis represents intermittent high-flow conditions, whereas acute dialysis mimics continuous low-flow therapy used in critically ill patients.
as §3

[6] = Removal of immunosuppressants by acute dialysis (CVVHD, ex vivo, plasma); type: in vitro ADME, human
Description: as §4, §5, §3

[7] = Whole blood cell model: immunosuppressant serum levels after CytoSorb treatment; type: in vitro ADME, human; conditions: overnight incubation, p < 0.05, n = 6
Description: To investigate whether the in vitro depletion of immunosuppressants by CytoSorb affects immunosuppression, a whole blood cell model was established. The experiment was conducted over two consecutive days. A graphical overview of the setup is provided in Supplementary Figure S1. On day one, freshly drawn human whole blood was incubated overnight at 37 °C with various immunosuppressants, either individually or in combination, to allow for sufficient drug exposure prior to CytoSorb treatment.
Subsequently, the blood was split into two experimental groups: one was treated with CytoSorb in a batch setup, and the other served as an untreated control, incubated under identical conditions at 37 °C on a roller mixer. Following treatment, all samples were allowed to rest for 4 h. After the resting period, blood samples were stimulated with either lipopolysaccharide (LPS) E. coli or with anti-CD3 antibodies. LPS primarily activates monocytes and neutrophils via the TLR4/CD14/MD2 complex, while anti-CD3 specifically stimulates T cells. The stimulation was carried out for 4 h at 37 °C on a roller mixer. Thereafter, the blood samples were centrifuged, and the plasma was collected and stored at −80 °C. Leukocyte activation was assessed by quantification of IL-1β, IL-6, IL-8, and TNF-α.
as §2

[8] = tested on: human whole blood; experiment: Whole blood cell model: LPS stimulation, cytokine measurement; type: cell-based; conditions: + CytoSorb
Description: (§6) Subsequently, the blood was split into two experimental groups: one was treated with CytoSorb in a batch setup, and the other served as an untreated control, incubated under identical conditions at 37 °C on a roller mixer. Following treatment, all samples were allowed to rest for 4 h. After the resting period, blood samples were stimulated with either lipopolysaccharide (LPS) E. coli or with anti-CD3 antibodies. […] The stimulation was carried out for 4 h at 37 °C on a roller mixer. Thereafter, the blood samples were centrifuged, and the plasma was collected and stored at −80 °C. Leukocyte activation was assessed by quantification of IL-1β, IL-6, IL-8, and TNF-α.

[9] = tested on: human whole blood; experiment: Whole blood cell model: anti-CD3 stimulation, cytokine measurement; type: cell-based; conditions: + Anti-CD3, + CytoSorb
Description: as §6

[10] = parameters: method as in earlier work; conditions: literature; ref 23 (methylprednisolone), 24 (mycophenolate), 41 (6-mercaptopurine); cited from earlier work
[11] = literature; ref 21 (6-MP), 22 (CsA), 23 (MPR), 24 (MPA), 25 (TAC); cited from earlier work

Sc1ncnc2nc[nH]c12 [6-MP, 6-mercaptopurine]
reduction of level in plasma by CytoSorb [1]: 33 ± 11% | absorbed / reduced by blood cells [2]: 36 ± 6% | fraction unbound [3]: 0.662 | mean clearance rate ([4]; CytoSorb treatment, at 15 min, Equation (2)): ~31 mL/min | adsorption (removal) by CytoSorb ([4]; dynamic ex vivo circuit, 400 mL human whole blood, 30 mL cartridge, 4 h): 47 ± 16% | removal by dialysis (in words) [5]: efficiently removed | clearance ([5]; initial values): ~ 190 mL/min | removal by dialysis (in words) [6]: efficiently removed | clearance ([6]; after 8 h): below 10 mL/min | clearance ([6]; highest value reached): up to 30 mL/min | reduction in serum level following CytoSorb treatment (in words) [7]: significant reduction | IL-1β serum level ([8]; test 1): 354 pg/mL | IL-6 serum level ([8]; test 1): 3786 pg/mL | IL-8 serum level ([8]; test 1): 6337 pg/mL | TNF-α serum level ([8]; test 1): 2920 pg/mL | IL-1β serum level ([8]; test 2): 44 pg/mL | IL-6 serum level ([8]; test 2): 730 pg/mL | IL-8 serum level ([8]; test 2): 2253 pg/mL | TNF-α serum level ([8]; test 2): 1762 pg/mL | IL-1β serum level ([8]; test 3): 190 pg/mL | IL-6 serum level ([8]; test 3): 3799 pg/mL | IL-8 serum level ([8]; test 3): 7104 pg/mL | TNF-α serum level ([8]; test 3): 1250 pg/mL | IL-1β serum level ([9]; test 1): 0 pg/mL | IL-6 serum level ([9]; test 1): 3 pg/mL | IL-8 serum level ([9]; test 1): 205 pg/mL | TNF-α serum level ([9]; test 1): 12 pg/mL | IL-1β serum level ([9]; test 2): 75 pg/mL | IL-6 serum level ([9]; test 2): 381 pg/mL | IL-8 serum level ([9]; test 2): 4175 pg/mL | TNF-α serum level ([9]; test 2): 46 pg/mL | IL-1β serum level ([9]; test 3): 70 pg/mL | IL-6 serum level ([9]; test 3): 30 pg/mL | IL-8 serum level ([9]; test 3): 686 pg/mL | TNF-α serum level ([9]; test 3): 41 pg/mL | volume of distribution (Vd) [10]: ≈ 0.9 L/kg | Protein Binding in Plasma, Reference [11]: 39 [21] %

— PMC12655457, “Does CytoSorb Interfere with Immunosuppression? A Pharmacokinetic and Functional Evaluation” (Pharmaceutics, 2025)
